Assay results from patent publication US10857105B2, “Compounds and compositions for intracellular delivery of therapeutic agents” (ModernaTX, Inc., priority 2017, dated 2020).

Legend:
[1] = Particle size and polydispersity index of nanoparticle compositions (Zetasizer Nano ZS); format: physicochemical; settings: Table 1A; lipid:DSPC:cholesterol:PEG-DMG 50:10:38.5:1.5 mol %
Summary of the method: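 Size and PDI measured by Zetasizer Nano ZS in 1×PBS (zeta potential in 15 mM PBS). Lipid nanoparticles contained test ionizable lipid:DSPC:cholesterol:PEG-DMG at 50:10:38.5:1.5 mol % with N1-methyl-pseudouridine mRNA encoding luciferase or hEPO.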

[2] = Encapsulation efficiency of RNA in nanoparticle compositions (RIBOGREEN assay); format: physicochemical; settings: Table 1A; lipid:DSPC:cholesterol:PEG-DMG 50:10:38.5:1.5 mol %
Summary of the method: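 Lipid nanoparticles (ionisable lipid:DSPC:cholesterol:PEG-DMG 50:10:38.5:1.5 mol %) carrying N1-methylpseudouridine luciferase or hEPO mRNA diluted to about 5 μg/mL in TE, pH 7.5, with or without 2% Triton X-100, 15 min at 37° C. RiboGreen fluorescence (ex ~480, em ~520 nm) blank-subtracted; free RNA = intact/disrupted signal.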

[3] = test system: modified luciferase; test: Luciferase expression in liver, lung, spleen and femur 6 hours after intravenous administration to mice; format: in vivo; settings: 6 hours after intravenous 0.5 mpk, mice
Summary of the method: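 Nanoparticle formulations of the modified luciferase were given intravenously to mice (n=3) at 0.5 mpk. Bioluminescence was measured after 6 hours as total light flux. Standard MC3 formulation and PBS run as controls.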

[4] = test system: IL-6, IP-10; test: Cytokine induction (IL-6, IP-10) in mice 6 hours after intravenous administration; format: in vivo; set-up: unit not given here; settings: intravenous 0.5 mpk
Description: The introduction of foreign material into a mammalian body induces an innate immune response that promotes cytokine production. Such immune responses to, for example, nanoparticle compositions including therapeutic and/or prophylactics, are undesirable. The induction of certain cytokines is thus measured to evaluate the […] of nanoparticle compositions. The concentrations of various cytokines in mice upon intravenous administration of nanoparticle compositions presented in Table 1A at a dosage of 0.5 mpk was measured at 6 hours. The standard MC3 formulation and a PBS control were also tested. As is evident in Table 7, IL-6 induction was highest for compositions including Compounds 1, 3, 9, 19, and 26, while IP-10 induction was highest for compositions including Compounds 3, 4, 7, 20, and 26. IL-6 induction was lowest for compositions including Compounds 4, 11, 12, and 28. IP-10 induction was lowest for compositions including Compounds 10, 11, 12, 13, 15, 17, and 18.

| SMILES | Size [1] [nm] | EE [2] [%] | Total Flux, Femur [3] | Total Flux, Liver [3] | Total Flux, Lung [3] | Total Flux, Spleen [3] | Cytokine induction, IL-6 [4] | Cytokine induction, IP-10 [4] |
| --- | --- | --- | --- | --- | --- | --- | --- | --- |
| CCCCCCCCCOC(=O)CCCCCCCN(CCCCCCCC(=O)OC(CCCCCCCC)CCCCCCCC)CCOC [Compound 15, Heptadecan-9-yl 8-((2-methoxyethyl)(8-(nonyloxy)-8-oxooctyl)amino)octanoate] | 111.1 | 92.47 | 5.93E+04 | 6.23E+06 | 6.41E+04 | 9.01E+05 | 64.65 | 184.30 |
| CCCCCCCC/C=C\COC(=O)CCCCCN(CCO)CCCCCC(=O)OC/C=C\CCCCCCCC [Compound 140, Di((Z)-undec-2-en-1-yl) 6,6′-((2-hydroxyethyl)azanediyl)dihexanoate] | 120.3 | 89.2 | 3.26E+04 | 4.21E+05 | 2.14E+04 | 2.22E+05 | 282.82 | 187.83 |
| CCCCCCCCC(CCCCCCCC)OC(=O)CCCCCCCN(CCO)CCCCCC [Compound 5, Heptadecan-9-yl 8-(hexyl(2-hydroxyethyl)amino)octanoate] | – | 77.07 | 1.22E+06 | 5.84E+07 | 1.89E+06 | 1.55E+08 | 94.07 | 487.16 |
| CCCCCCCCCCCCCCN(CCO)CCCCCCCC(=O)OC(CCCCCCCC)CCCCCCCC [Compound 2, Heptadecan-9-yl 8-((2-hydroxyethyl)(tetradecyl)amino)octanoate] | 83.9 | 93.88 | 3.86E+06 | 4.87E+09 | 2.52E+07 | 5.77E+07 | 70.95 | 468.86 |
| CCCCCCCCCOC(=O)CCCCCCCN(CCCCCCCC(=O)OC(CCCCCCCC)CCCCCCCC)C[C@H](C)O [Compound 12, Heptadecan-9-yl (S)-8-((2-hydroxypropyl)(8-(nonyloxy)-8-oxooctyl)amino)octanoate] | 116.7 | 92.44 | – | 6.84E+08 | 7.45E+06 | 6.82E+07 | 3.88 | 32.03 |
| CCCCCCCCC(CCCCCCCC)OC(=O)CCCCCCCN(CCO)CCCCCCCC(=O)OCC1CC1CCCCCC (stereo not shown) [Compound 28, Heptadecan-9-yl 8-((8-((2-hexylcyclopropyl)methoxy)-8-oxooctyl)(2-hydroxyethyl)amino)octanoate] | 99.4 | – | – | 1.22E+10 | 2.17E+08 | 1.80E+08 | 17.47 | 283.13 |
| CCCCCC/C=C\COC(=O)CCCCCCCN(CCO)CCCCCCCC(=O)OC/C=C\CCCCCC [Compound 139, Di((Z)-non-2-en-1-yl) 8,8′-((2-hydroxyethyl)azanediyl)dioctanoate] | – | 78.2 | 5.12E+04 | 8.27E+05 | 5.26E+04 | 2.10E+06 | 23.57 | 153.36 |
| CCCCCCCCCCCCCCCCCCN(CCO)CCCCCCCC(=O)OC(CCCCCCCC)CCCCCCCC [Compound 1, Heptadecan-9-yl 8-((2-hydroxyethyl)(octadecyl)amino)octanoate] | 72.7 | – | 7.52E+05 | 4.02E+08 | 1.72E+06 | 4.27E+06 | 267.24 | 687.14 |
